This note sets out measurements from patent US9688699B2, “3-(pyrimidine-2-yl)imidazo[1,2-a]pyridines” (Bayer Pharma Aktiengesellschaft, priority 2014, dated 2017).

The target of assay [1] is T1, human phosphodiesterase 5 (PDE 5) (Homo sapiens, UniProt O76074).
T1 construct: PDE 5 preparations are obtained from human platelets by disruption; from tissue; host or cells: human platelets (Mono Q ion exchange fractions with PDE 5 activity)
Briefly: Inhibition of human phosphodiesterase 5 (PDE 5) (B-3). The following applies: PDE 5 preparation from human platelets; [8-3H] cGMP substrate, SPA; in some cases means of individual determinations. The assay is classed as biochemical. Summed up:
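Enzyme partially purified from human platelets by Mono Q ion exchange; [8-3H]cGMP substrate (0.025 μCi), Tris-HCl pH 7.5 with MgCl2/EDTA, <70% conversion, 60 min at room temperature. Compounds tested at 4 to 0.0018 μM final; yttrium SPA bead read-out, IC50 from concentration–% inhibition plot.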

The target of assay [2] is T2, recombinant guanylate cyclase reporter cell line (Rattus norvegicus, UniProt P19686+P20595).
T2 construct: expressed in transfected cells
T2 sequence (P19686 1-690): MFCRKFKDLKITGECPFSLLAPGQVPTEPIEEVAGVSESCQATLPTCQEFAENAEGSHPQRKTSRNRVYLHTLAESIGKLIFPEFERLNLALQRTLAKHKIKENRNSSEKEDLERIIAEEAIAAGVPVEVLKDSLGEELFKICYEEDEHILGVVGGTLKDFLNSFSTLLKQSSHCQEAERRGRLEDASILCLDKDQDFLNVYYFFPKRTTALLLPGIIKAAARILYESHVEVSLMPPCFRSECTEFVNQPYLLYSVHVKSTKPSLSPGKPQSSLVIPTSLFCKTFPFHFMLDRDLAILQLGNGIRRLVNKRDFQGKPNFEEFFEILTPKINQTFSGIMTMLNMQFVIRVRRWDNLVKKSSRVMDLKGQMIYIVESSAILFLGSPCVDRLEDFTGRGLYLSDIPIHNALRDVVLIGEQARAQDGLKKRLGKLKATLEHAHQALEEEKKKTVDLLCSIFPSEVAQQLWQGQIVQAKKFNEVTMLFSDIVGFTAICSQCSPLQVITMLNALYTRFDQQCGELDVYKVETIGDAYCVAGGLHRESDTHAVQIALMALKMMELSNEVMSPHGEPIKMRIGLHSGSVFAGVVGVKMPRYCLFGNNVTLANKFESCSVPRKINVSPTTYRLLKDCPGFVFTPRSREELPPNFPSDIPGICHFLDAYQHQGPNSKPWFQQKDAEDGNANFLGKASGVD
T2 sequence (P20595 1-619): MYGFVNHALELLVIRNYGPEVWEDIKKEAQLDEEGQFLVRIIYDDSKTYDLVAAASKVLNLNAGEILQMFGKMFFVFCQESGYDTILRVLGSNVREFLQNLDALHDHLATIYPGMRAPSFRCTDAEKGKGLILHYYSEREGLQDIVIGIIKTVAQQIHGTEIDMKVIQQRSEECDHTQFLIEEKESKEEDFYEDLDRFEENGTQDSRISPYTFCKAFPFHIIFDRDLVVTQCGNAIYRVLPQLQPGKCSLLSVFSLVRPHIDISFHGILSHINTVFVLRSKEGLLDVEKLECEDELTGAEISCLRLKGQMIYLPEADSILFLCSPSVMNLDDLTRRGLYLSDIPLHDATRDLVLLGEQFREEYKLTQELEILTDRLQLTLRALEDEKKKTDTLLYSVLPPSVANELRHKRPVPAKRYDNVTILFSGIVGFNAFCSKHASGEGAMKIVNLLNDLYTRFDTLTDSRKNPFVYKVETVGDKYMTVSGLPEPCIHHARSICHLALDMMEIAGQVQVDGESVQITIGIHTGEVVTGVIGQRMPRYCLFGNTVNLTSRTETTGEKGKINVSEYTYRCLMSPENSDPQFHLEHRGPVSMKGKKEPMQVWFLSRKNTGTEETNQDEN
The assay can be described thus: Effect on a recombinant guanylate cyclase reporter cell line (B-2). The format is cell-based. The following applies: MEC = minimum effective concentration, in some cases mean values for individual determinations. Summed up:
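Cellular guanylate cyclase activity measured in a recombinant reporter cell line expressing rat soluble guanylate cyclase subunits. Values are minimum effective concentrations (MEC), some as means of individual determinations.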

Where a name gives a salt, the structure may show the parent alone.

On to `COCC(C)(N)CNc1nc(-c2c(C)nc3c(OCc4c(F)cccc4F)cccn23)nc2c1C(C)(C)C(=O)N2` (racemic) [Example 21, rac-4-[(2-amino-3-methoxy-2-methylpropyl)amino]-2-{8-[(2,6-difluorobenzyl)oxy]-2-methylimidazo[1,2-a]pyridin-3-yl}-5,5-dimethyl-5,7-dihydro-6H-pyrrolo[2,3-d]pyrimidin-6-one], for which the IC50 in assay [1] turned out to be 0.022 µM. Further, the MEC in assay [2] worked out at 0.3 µM.
Take `Cc1nc2c(OCc3c(F)cccc3F)cccn2c1-c1nc2c(c(C(=O)NC3CC3)n1)C(C)(C)C(=O)N2` [Example 55, N-Cyclopropyl-2-{8-[(2,6-difluorobenzyl)oxy]-2-methylimidazo[1,2-a]pyridin-3-yl}-5,5-dimethyl-6-oxo-6,7-dihydro-5H-pyrrolo[2,3-d]pyrimidine-4-carboxamide]: the IC50 in assay [1] stood at 0.004 µM. In addition, the MEC in assay [2] was 0.3 µM.
With `Cc1nc2c(OCc3c(F)cccc3F)cccn2c1-c1nc(O)c2c(n1)NC(=O)C2(C)C(F)(F)F` (racemic) [Example 8, rac-2-{8-[(2,6-Difluorobenzyl)oxy]-2-methylimidazo[1,2-a]pyridin-3-yl}-4-hydroxy-5-methyl-5-(trifluoromethyl)-5,7-dihydro-6H-pyrrolo[2,3-d]pyrimidin-6-one trifluoroacetate], the IC50 in assay [1] is 0.12 µM. Moreover, the MEC in assay [2] is 1 µM.
For the compound `Cc1nc2c(OCc3c(F)ccc(F)c3F)cccn2c1-c1nc2c(c(N3CCC(CC(=O)O)CC3)n1)C(C)(C)C(=O)N2` [Example 38, [1-(5,5-dimethyl-2-{2-methyl-8-[(2,3,6-trifluorobenzyl)oxy]imidazo[1,2-a]pyridin-3-yl}-6-oxo-6,7-dihydro-5H-pyrrolo[2,3-d]pyrimidin-4-yl)piperidin-4-yl]acetic acid], in assay [1], the IC50 came to 0.036 µM. The MEC in assay [2] came out at 3 µM.
The corresponding values for `Cc1nc2c(OCc3c(F)cccc3F)cccn2c1-c1nc(NCC(N)C(F)(F)F)c2c(n1)NC(=O)C2(C)C` (racemic) [Example 25, rac-4-[(2-amino-3,3,3-trifluoropropyl)amino]-2-{8-[(2,6-difluorobenzyl)oxy]-2-methylimidazo[1,2-a]pyridin-3-yl}-5,5-dimethyl-5,7-dihydro-6H-pyrrolo[2,3-d]pyrimidin-6-one] are 0.015 µM and 3 µM.
`Cc1nc2c(OCc3c(F)cccc3F)cccn2c1-c1nc2c(c(N3CCC[C@H]3CO)n1)C(C)(C)C(=O)N2` [Example 36, 2-{8-[(2,6-difluorobenzyl)oxy]-2-methylimidazo[1,2-a]pyridin-3-yl}-4-[(2S)-2-(hydroxymethyl)pyrrolidin-1-yl]-5,5-dimethyl-5,7-dihydro-6H-pyrrolo[2,3-d]pyrimidin-6-one]: the IC50 in assay [1] is 0.02 µM. For the same compound, the MEC in assay [2] was 0.3 µM.
`COCC(C)(N)CNc1nc(-c2c(C)nc3c(OCc4c(F)cccc4F)cccn23)nc2c1C(C)(C)C(=O)N2` (single isomer, unassigned; ent-4) [Example 45, ent-4-[(2-Amino-3-methoxy-2-methylpropyl)amino]-2-{8-[(2,6-difluorobenzyl)oxy]-2-methylimidazo[1,2-a]pyridin-3-yl}-5,5-dimethyl-5,7-dihydro-6H-pyrrolo[2,3-d]pyrimidin-6-one (Enantiomer A)] came in with a concentration for half-maximal inhibition (IC50) in assay [1] of 0.0098 µM. In assay [2], the MEC turned out to be 1 µM.
The corresponding values for `Cc1nc2c(OCc3c(F)cccc3F)cccn2c1-c1nc(NCC(C)(C)N)c2c(n1)NC(=O)C2(C)C` [Example 12, 4-[(2-Amino-2-methylpropyl)amino]-2-{8-[(2,6-difluorobenzyl)oxy]-2-methylimidazo[1,2-a]pyridin-3-yl}-5,5-dimethyl-5,7-dihydro-6H-pyrrolo[2,3-d]pyrimidin-6-one] are 0.0036 µM and 0.2 µM.
The corresponding values for `Cc1nc2c(OCc3c(F)ccc(F)c3F)cccn2c1-c1ncc2c(n1)NC(=O)C2(C)C` [Example 75, 5,5-Dimethyl-2-{2-methyl-8-[(2,3,6-trifluorobenzyl)oxy]imidazo[1,2-a]pyridin-3-yl}-5,7-dihydro-6H-pyrrolo[2,3-d]pyrimidin-6-one formate] are 0.37 µM and 10 µM.
For `Cc1nc2c(OCc3c(F)cccc3F)cccn2c1-c1nc(NCC2(O)CC2)c2c(n1)NC(=O)C2(C)C` [Example 17, 2-{8-[(2,6-difluorobenzyl)oxy]-2-methylimidazo[1,2-a]pyridin-3-yl}-4-{[(1-hydroxycyclopropyl)methyl]amino}-5,5-dimethyl-5,7-dihydro-6H-pyrrolo[2,3-d]pyrimidin-6-one], in that order: 0.0046 µM and 0.3 µM.
In assay [1], `Cc1nc2c(OCc3c(F)cccc3F)cccn2c1-c1nc(I)c2c(n1)NC(=O)C2(C)C(F)(F)F` (racemic) [Example 7, rac-2-{8-[(2,6-Difluorobenzyl)oxy]-2-methylimidazo[1,2-a]pyridin-3-yl}-4-iodo-5-methyl-5-(trifluoromethyl)-5,7-dihydro-6H-pyrrolo[2,3-d]pyrimidin-6-one trifluoroacetate (racemate)] came in with an IC50 of 0.59 µM. The MEC in assay [2] worked out at 2 µM.
The corresponding values for `Cc1nc2c(OCc3c(F)ccc(F)c3F)cccn2c1-c1nc(O)c2c(n1)NC(=O)C2(C)C` [Example 11, 4-Hydroxy-5,5-dimethyl-2-{2-methyl-8-[(2,3,6-trifluorobenzyl)oxy]imidazo[1,2-a]pyridin-3-yl}-5,7-dihydro-6H-pyrrolo[2,3-d]pyrimidin-6-one] are 0.26 µM and 3 µM.
`Cc1nc2c(OCc3c(F)cccc3F)cccn2c1-c1nc2c(c(NC3CC(O)C3)n1)C(C)(C)C(=O)N2` (mixture of isomers) [Example 30, 2-{8-[(2,6-difluorobenzyl)oxy]-2-methylimidazo[1,2-a]pyridin-3-yl}-4-[(3-hydroxycyclobutyl)amino]-5,5-dimethyl-5,7-dihydro-6H-pyrrolo[2,3-d]pyrimidin-6-one [cis/trans mixture]] yielded a 50% inhibitory concentration (IC50) in assay [1] of 0.0036 µM. The MEC in assay [2] stood at 1 µM.
Take `Cc1nc2c(OCc3c(F)cccc3F)cccn2c1-c1nc2c(c(NC3CCC(C)(O)CC3)n1)C(C)(C)C(=O)N2` (single isomer, unassigned; diastereomer 2) [Example 29, 2-{8-[(2,6-difluorobenzyl)oxy]-2-methylimidazo[1,2-a]pyridin-3-yl}-4-[(4-hydroxy-4-methylcyclohexyl)amino]-5,5-dimethyl-5,7-dihydro-6H-pyrrolo[2,3-d]pyrimidin-6-one formate (Diastereomer 2)]: in assay [1], it took 0.0009 µM to reach half-maximal inhibition (IC50). In addition, the MEC in assay [2] was 0.3 µM.
For `Cc1nc2c(OCc3c(F)cccc3F)cccn2c1-c1nc(NCC(C)(N)C(F)(F)F)c2c(n1)NC(=O)C2(C)C` (racemic) [Example 40, rac-4-[(2-Amino-3,3,3-trifluoro-2-methylpropyl)amino]-2-{8-[(2,6-difluorobenzyl)oxy]-2-methylimidazo[1,2-a]pyridin-3-yl}-5,5-dimethyl-5,7-dihydro-6H-pyrrolo[2,3-d]pyrimidin-6-one], the IC50 in assay [1] turned out to be 0.014 µM. The MEC in assay [2] came to 3 µM.
For `Cc1cc(OCc2c(F)cccc2F)c2nc(C)c(-c3nnc4c(n3)NC(=O)C4(C)C)n2c1` [Example 69, 3-{8-[(2,6-Difluorobenzyl)oxy]-2,6-dimethylimidazo[1,2-a]pyridin-3-yl}-7,7-dimethyl-5,7-dihydro-6H-pyrrolo[2,3-e][1,2,4]triazin-6-one], in that order: 0.79 µM and 1 µM.
